{"source": "patent US20140031388A1", "about": "“AKT INACTIVATION BY TOCOPHERYL DERIVATIVES” (priority 2012, published 2014)", "key": {"[1]": {"test_system": "PC-3-luc xenograft tumors", "experiment": "PC-3-luc subcutaneous xenograft in athymic nude mice", "assay_type": "in vivo", "conditions": "50 mg/kg daily intraperitoneal, 21 days", "method": "(§1) Male athymic nude mice (Hsd:Athymic Nude-Foxn1^nu/nu, 5-7 weeks of age) were purchased from Harlan Laboratories and group-housed under conditions of constant photoperiod (12 hours light: 12 hours dark) with ad libitum access to sterilized food and water. Ectopic tumors were established in athymic nude mice by subcutaneous injection of 1×10^6 PC-3-luc or 2×10^6 LNCaP-abl cells in a total volume of 0.1 mL serum-free medium containing 50% Matrigel (BD Biosciences). The establishment and growth of tumors were monitored weekly by measurement with calipers (tumor volume=width^2×length×0.52) and bioluminescence (PC-3-luc) using the IVIS™ imaging system (Xenogen Corporation, Alameda, Calif.). For bioluminescent imaging, mice anesthetized with isoflurane were imaged at 15, 20 and 25 min after intraperitoneal administration of firefly luciferin (150 mg/kg; Caliper Life Sciences) to capture maximal luminescence. Data acquisition and analysis were achieved using the Living Image® software (Xenogen). […] Body weights and tumor burdens were measured weekly. At the study endpoint, mice were euthanized, and blood was collected by cardiac puncture from all mice and submitted to The Ohio State University Comparative Pathology and Mouse Phenotyping Shared Resource for determination of complete blood counts and serum chemistry."}, "[2]": {"test_system": "LNCaP-abl xenograft tumors", "experiment": "LNCaP-abl subcutaneous xenograft in athymic nude mice", "assay_type": "in vivo", "method": "as §1"}, "[3]": {"experiment": "Toxicologic evaluation in PC-3-luc tumor-bearing mice", "assay_type": "in vivo", "method": "as §1"}, "[4]": {"test_system": "PDK-1 membrane localization", "experiment": "Immunofluorescence, membrane localization of PDK-1 at higher concentrations", "assay_type": "cell-based", "conditions": "6 hours of exposure", "method": "Cells were stained for endogenous PH domain-containing proteins (Akt, PHLPP, PDK-1, ILK, BTK) by incubation with specific antibodies (1:100), followed by incubation with the Alexa Fluor 555-conjugated goat anti-rabbit or Alexa Fluor 488-conjugated goat anti-mouse IgG (1:200) at room temperature for 2 hours. Both primary and secondary antibodies were diluted in incubation buffer containing 0.1% Triton X-100 and 0.2% bovine serum albumin in PBS. The cells were washed in PBS after each step and mounted using […] mounting medium supplemented with DAPI (Vector Laboratories Inc., Burlingame, Calif.). The slides were allowed to set for at least 4 hours before confocal images were acquired using a Zeiss LSM 510 inverted confocal laser scanning microscope operated with Zeiss LSM 510 software. Image analysis was performed using ImageJ (NIH) software."}, "[5]": {"conditions": "50 mg/kg daily intraperitoneal, 21 days"}, "[6]": {"conditions": "values within the normal ranges for mice"}}}
{"molecule": "Cc1c(O)cc2c(c1C)O[C@](C)(CCCC(C)C)CC2", "note": "[γ-VE5, (R)-2,7,8-trimethyl-2-(4-methylpentyl)-chroman-6-ol]", "values": [{"measurement": "PC-3-luc tumor growth relative to vehicle-treated controls (bioluminescence)", "setting": "[1]; P<0.05", "result": "inhibited PC-3-luc tumor growth"}, {"measurement": "intratumoral phosphorylation of Akt, MDM2 and IKKα", "setting": "[1]; PC-3-luc tumors", "result": "suppressed phosphorylation of Akt at Ser^473 without disrupting that at Thr^308"}, {"measurement": "LNCaP-abl tumor growth relative to vehicle-treated controls", "setting": "[2]; [5]", "result": "significantly inhibited tumor growth"}, {"measurement": "intratumoral phosphorylation of Akt at Ser473, MDM2 and IKKα", "setting": "[2]; LNCaP-abl tumors, relative to vehicle-treated controls", "result": "reduced phosphorylation"}, {"measurement": "gross pathology findings at necropsy", "setting": "[3]; [5]", "result": "abdominal adhesions and variable amounts of clear fluid within the abdomen"}, {"measurement": "change of mean body weight over the treatment period", "setting": "[3]; 50 mg/kg daily intraperitoneal, 21 days, vehicle −0.2 grams", "result": "−0.7", "unit": "grams"}, {"measurement": "change of mean body weight over the treatment period", "setting": "[3]; 50 mg/kg daily intraperitoneal, 21 days, vehicle −0.7%", "result": "−2.3", "unit": "%"}, {"measurement": "hematological findings relative to controls", "setting": "[3]; [6]", "result": "reductions in hematocrit, red blood cell numbers and hemoglobin concentration"}, {"measurement": "serum chemistry findings", "setting": "[3]; [6]", "result": "increase in aspartate aminotransferase and a decrease in serum albumin concentrations"}, {"measurement": "membrane-associated PDK-1, share of total immunofluorescence signal", "setting": "[4]; 25 μM", "result": "approximately 50%"}, {"measurement": "membrane-associated PDK-1, share of total immunofluorescence signal", "setting": "[4]; 35 μM", "result": "greater than 90%"}]}
